In patent US20030045524A1, “Alpha-2-adrenergic agonist/fatty acid compositions” (priority 2001, published 2003):
Read-outs that look alike come from different tables or passages of the source.

Legend:
Intra Ocular Pressure = details: ion pair formulation of 0.131% bromonidine and 0.126% linoleic acid
Description: The complex is an ion pair formulation of 0.131% bromonidine and 0.126% linoleic acid.

[1] = tested on: Rabbit Intraocular Pressure; details: 0.2% complex; for INTRAOCULAR PRESSURE: mean, n=8
Method: In this study, the animals were placed into three groups consisting of a mix of age, size and sex.
One group of animals (both sexes) was used per screening study. The test compound (20 L of 0.2% bromonidine-linoleic acid ion pair complex) was administered to the surface of the cornea using an automatic pipette or an appropriate device.
The following general procedure for administering the test compound employed in this study is presented below:
1. Make sure that the 0.25% proparacaine Opthetic5 mixture (topical local anesthetic), test compounds, and commercially available treats are available.
2. Turn on the Digilab Modular One J Pneuma Tonometer (pneumatonometer) [BioRad, Cambridge, Mass.]; it needs approximately 15 minutes to warm up. Turn on gas supply or air pump.
3. Hold probe vertically with the point tip down and press “calibration check” for “zero”.
4. Wipe the pneumatonometer probe with an alcohol swab, and inspect the tip membrane for holes.
5. Set the external calibration device (air or water manometer) to 25 mm Hg, place the pneumatonometer probe in the calibration device to ensure that it corresponded to 25 2 mm Hg.
6. Obtain a rabbit. Make sure the recording data sheets are at hand.
7. Gently restrain the rabbit via a commercial restrainer or a cotton towel. Measure the pupil diameter with the specialized ruler for each eye and record the values on the sheets provided. If the eyes are too dark to obtain a value by this method, a specialized penlight may be used. Obtain a pupil diameter measurement by shining the penlight on the cornea for one second.
8. Slide the upper eyelid up with the thumb and visually assess and score the degree of ocular surface redness. Record the value for each eye on the sheet provided.
9. Put one drop of 0.25% proparacaine Opthetic5 (50:50 mix of 0.5% proparacaine Opthetic5+Cellufresh5) on the surface of each eye. Wait one or more minutes for ophthetic to take effect.
10. Place the pnematonometer tip on one eye at the site where the curvature of the cornea is greatest. Let the probe shank travel to the black line, not the red line. Persist until a stable reading with the standard deviation below 1.0 is obtained. Repeat the procedure for the contralateral eye. Record the data. (Note: If the animal is upset by the restraint, the reading will be artificially high and cannot be used. Use gentle restraint).
11. At the end of the 0, 6, 24, 30, 48, 54, 72, 78 and 96 hour measurements, use an automatic pipette to apply 20 L of the test compound to the surface of the cornea of one eye. After the 102 hour measurements, the eyes will be washed out with Refresh5 and Prefrin5.
12. Give the animal a treat and return the animal to its cage.
13. Repeat steps 7 to 11 on the remaining animals in the group.
The following general procedure for measuring the effects of the test compound employed in this study is as follows: a reading is conducted at 0, 2, 4, 6, 24, 26, 28, 30, 48, 50, 52, 54, 72, 74, 76, 78, 96, 98, 100, and 102 hours. The pneumatonometer is calibrated before use with a manometer and the probe tip is wiped with an alcohol swab. One drop of 0.25% proparacaine Opthetic5, a corneal anesthetic, is placed on the cornea. Allow sufficient time (approximately 1 minute) for it to anesthetize the cornea before placing the probe on the eye. The eye is gently opened by the person doing the tonometer reading. The probe is placed on the cornea at the point of greatest curvature and a stable reading is obtained. The probe is held parallel to the floor and perpendicular to the line of the rabbit's sight. The reading is repeated until a reasonable reading can be obtained. The piston should be between the red and black lines or at the black line on the probe.
Values are mean S.E.M. n=8.

monkeys = details: average of 6 monkeys, 0.2%, scale S=0 to 4
Method: The relative sedative effects of bromonidine-linoleic acid (compound 65) were compared to saline (compound 62) and brimonidine tartrate (compound 60). This study involved cross overs and a one-week wash out in between the administration of the various compounds.
As done in a previous experiment, the following method was followed:
1. 6 trained monkeys were placed in chairs and allowed to acclimate for approximately 30 minutes.
2. Individual monkeys were brought into the “testing room” where they were allowed to adjust to the new environment for approximately 2 minutes. […] Sedation scores were recorded on an observation sheet.
3. The monkey was returned to the group of animals assigned to this study.
4. 2 baseline readings were done at T−0.5 and 0 hour. After the 0 hour reading one drop of the test compound was administered to the right eye.
5. Steps 2 & 3 were repeated at T=0.5, 1, 2, 3 and 4 hour.
6. Animals were monitored until they recover from effects of the drug.
5. Scoring of Sedation was based on the following scale:
S=0 Monkey is quiet, but slightly active.
S=1 Monkey is quiet, easy to handle for reading
S=2 Monkey is quiet, relaxed but very low in activity
S=3 Monkey is blinking eyes and yawning
8. The test compounds were coded: 62-Saline, […].
9. Test Compound Administration:
The scoring was conducted for each animal for the different test compounds. The average results are shown on table 1.

## Brc1c(NC2=NCCN2)ccc2nccnc12.CCCCC/C=C\C/C=C\CCCCCCCC(=O)O
Intra Ocular Pressure; 1 hr after administration at time 0
  percent change of Intra Ocular Pressure: −10.4%
Intra Ocular Pressure; 2 hr after administration at time 0
  percent change of Intra Ocular Pressure: −16.0%
Intra Ocular Pressure; 4 hr after administration at time 0
  percent change of Intra Ocular Pressure: −09.5%
Intra Ocular Pressure; 6 hr after administration at time 0
  percent change of Intra Ocular Pressure: −09.4%
[1]; after administration
  time for which intraocular pressure in a rabbit's eye is reduced: at least 6 hours
[1]; after administration at time 6 hr
  duration of the effect of the complex on intraocular pressure: less than 18 hrs
[1]; time 0 hr (initial, dosed after reading)
  INTRAOCULAR PRESSURE: 25.8 mmHg
[1]; time 2 hr
  INTRAOCULAR PRESSURE: 17.1 mmHg
[1]; time 4 hr
  INTRAOCULAR PRESSURE: 21.1 mmHg
[1]; time 6 hr (dosed after reading)
  INTRAOCULAR PRESSURE: 23.9 mmHg
[1]; time 24 hr (dosed after reading)
  INTRAOCULAR PRESSURE: 25.6 mmHg
[1]; time 26 hr
  INTRAOCULAR PRESSURE: 19.9 mmHg
[1]; time 28 hr
  INTRAOCULAR PRESSURE: 22.9 mmHg
[1]; time 30 hr (dosed after reading)
  INTRAOCULAR PRESSURE: 23.0 mmHg
[1]; time 48 hr (dosed after reading)
  INTRAOCULAR PRESSURE: 26.5 mmHg
[1]; time 50 hr
  INTRAOCULAR PRESSURE: 20.4 mmHg
[1]; time 52 hr
  INTRAOCULAR PRESSURE: 23.4 mmHg
[1]; time 54 hr (dosed after reading)
  INTRAOCULAR PRESSURE: 24.1 mmHg
[1]; time 72 hr (dosed after reading)
  INTRAOCULAR PRESSURE: 26.8 mmHg
[1]; time 74 hr
  INTRAOCULAR PRESSURE: 21.1 mmHg
[1]; time 76 hr
  INTRAOCULAR PRESSURE: 23.9 mmHg
[1]; time 78 hr (dosed after reading)
  INTRAOCULAR PRESSURE: 25.2 mmHg
[1]; time 96 hr (dosed after reading)
  INTRAOCULAR PRESSURE: 27.9 mmHg
[1]; time 98 hr
  INTRAOCULAR PRESSURE: 20.1 mmHg
[1]; time 100 hr
  INTRAOCULAR PRESSURE: 23.9 mmHg
[1]; time 102 hr
  INTRAOCULAR PRESSURE: 25.3 mmHg

## brimonidine tartrate [reference compound]
monkeys; time 0 hr (baseline, before dosing)
  SEDATION SCORE: 0.8
monkeys; time 0.5 hr after one drop to right eye
  SEDATION SCORE: 0.8
monkeys; time 1 hr after one drop to right eye
  SEDATION SCORE: 1.7
monkeys; time 2 hr after one drop to right eye
  SEDATION SCORE: 2.6
monkeys; time 3 hr after one drop to right eye
  SEDATION SCORE: 2.5
monkeys; time 4 hr after one drop to right eye
  SEDATION SCORE: 2.7
monkeys; time −0.5 hr (baseline, before dosing)
  SEDATION SCORE: 0.7
